According to US20260174875A1 (Novo Nordisk A/S, priority 2023, published 2026):
Read-outs that look alike come from different tables or passages of the source. Marks after values point to notes of the source that are not given here. Numbered stars: 1 amine (or outer) side, 2 acyl side, 3 side chain; on linkers, the order of the positions; unused ones are H or OH. Square brackets hold non-standard residues; d marks the D form. Side chains are listed from the residue outwards. * marks the point of attachment. C20 diacid = O=C(O)CCCCCCCCCCCCCCCCCCC(=O)*; C18 diacid = O=C(O)CCCCCCCCCCCCCCCCC(=O)*; C16 diacid = O=C(O)CCCCCCCCCCCCCCC(=O)*; γGlu = O=C(O)[C@H](CCC(=O)[*:2])N[*:1]; AEEA = NCCOCCOCC(=O)O; Aib = CC(C)(N)C(=O)O

Key:
[1] = target: T1, human amylin receptor (hAMYR3) (Homo sapiens, UniProt O60896+P30988); assay: Amylin receptor assay, method A (CRE-luciferase reporter, BHK cells); assay type: cell-based
T1 construct: host or cells: BHK cells (Hollex-1 line expressing hCTR(a) and CRE-Luc), further transfected with human RAMP3

[2] = system: Male Sprague Dawley (SD) rats; assay: Efficacy testing on appetite: acute food intake in ad libitum fed normal weight rats; assay type: in vivo, rat; settings: for Food intake (relative to vehicle) Day 1: day 1 [0-24 hours]; for Food intake (relative to vehicle) Day 2: day 2 [24-48 hours]; for Food intake (relative to vehicle) Day 3: day 3 [48-72 hours]
Source text: Male Sprague Dawley (SD) rats from Taconic, Denmark were used for the acute food intake experiments, wherein the principles of laboratory animal care were followed.
The rats arrived at least 10-14 days before the start of the experiment to allow acclimatization to experimental settings. During this period, the animals were handled (fixation by restrain in neck skin) at least 2 times. Immediately upon arrival, rats were changed to a reversed light cycle (dark from 11 am-11 pm) and were transferred to an automated food intake measuring system (HM2 system, MBRose; Faaborg, Denmark). […] To enable recording of individual food intake, rats were ID chipped. Three rats were housed in each cage. During the acclimatization period, in which the rats get used to the new light cycle and diet (LF 10% (D12450B), from Research Diets Inc.), the animals had free access to food and water. Since rats are normally active and consume most of their daily calories during the dark period, rats were dosed in the morning right before lights were turned off. Such a set-up results in the lowest data variation and highest test sensitivity. […] In each cage there were animals from three different treatment groups (to eliminate potential cage effects (e.g. cage malfunction) on primary readout: food intake). The rats were dosed once subcutaneously (s.c.) with the peptide of interest according to body weight (10 or 30 nmol/kg) in vehicle (0.5 ml/kg) using a NovoPen® (Novo Nordisk, Bagsvæed, Denmark).
The compounds of the invention were formulated (20 or 60 nmol/ml) in the following vehicle: 8 mM phosphate; 250 mM glycerol; 0.007% polysorbate 20, pH 7.4.
After dosing, the rats were returned to their home cages, where they continued to have ad libitum access to chow and water. The food consumption was recorded individually and continuously by the HM2 system from 0-72 h after test compound administration. Data obtained by the HM-2 system were stored in a HMBase SQL database (Firebird® relational database management system) and were processed by HM2Lab software (MBRose; Faaborg, Denmark) installed in an embedded computer. The feeding system is a highly sensitive system with a load resolution of 0.001 g.

[3] = hAMYR3 Potency, 1% HSA, EC50, method A, in the presence of 1% HSA
[4] = method A, absence of HSA, read-out: hAMYR3 Potency, no HSA, EC50
[5] = hAMYR3 Potency, no HSA, EC50, method A, absence of HSA

T1 sequence (P30988 25-474): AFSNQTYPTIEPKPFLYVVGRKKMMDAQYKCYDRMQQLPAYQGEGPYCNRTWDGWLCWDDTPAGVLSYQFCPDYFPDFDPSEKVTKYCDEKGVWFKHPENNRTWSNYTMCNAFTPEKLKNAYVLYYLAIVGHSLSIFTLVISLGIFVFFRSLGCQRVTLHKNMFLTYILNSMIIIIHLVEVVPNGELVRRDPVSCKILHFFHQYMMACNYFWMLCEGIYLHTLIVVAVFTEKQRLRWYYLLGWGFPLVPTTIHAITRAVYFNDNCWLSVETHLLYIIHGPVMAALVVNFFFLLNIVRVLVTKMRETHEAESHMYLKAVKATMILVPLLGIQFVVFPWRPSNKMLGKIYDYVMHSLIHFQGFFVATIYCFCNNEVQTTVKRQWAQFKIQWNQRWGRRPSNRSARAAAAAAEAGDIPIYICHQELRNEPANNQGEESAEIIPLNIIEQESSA
T1 sequence (O60896 24-148): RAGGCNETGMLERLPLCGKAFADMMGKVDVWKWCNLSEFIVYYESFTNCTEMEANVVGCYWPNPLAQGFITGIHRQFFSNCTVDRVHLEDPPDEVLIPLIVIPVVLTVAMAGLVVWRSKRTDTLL

Row | Substance | EC50 [1, 3] [nM] | EC50 [1, 4] [nM] | Food intake (relative to vehicle) Day 1 ([2]; single dose 10 nmol/kg) | Food intake (relative to vehicle) Day 2 ([2]; single dose 10 nmol/kg) [%] | Food intake (relative to vehicle) Day 3 ([2]; single dose 10 nmol/kg) [%] | EC50 [1, 5] [nM] | Food intake (relative to vehicle) Day 1 ([2]; single dose 30 nmol/kg) [%] | Food intake (relative to vehicle) Day 2 ([2]; single dose 30 nmol/kg) [%] | Food intake (relative to vehicle) Day 3 ([2]; single dose 30 nmol/kg) [%]
1 | H[Aib]HGTFTSDYSILLEEQAAREFIEWLLAGGPSK([AEEA-AEEA-γGlu-C16 diacid])GAPPPSGGGEASELSTAALGRLSAELHELATLPRTETGSGSP-NH2 [Compound 12] | 0.055 | 0.00623 | −70% | −39 | −8 | – | – | – | –
2 | H[Aib]HGTFTSDYSILLEEQAAREFIEWLLAGGPSK([AEEA-AEEA-γGlu-C16 diacid])GAPPPSGGGEASHLSTAQTARLSAELHRLADLPRTETGSGSP-NH2 [Compound 61] | 0.0307 | – | −86% | −92 | −34 | 0.00297 | – | – | –
3 | H[Aib]HGTFTSDYSILLEEQAAREFIEWLLAGGPSK([AEEA-AEEA-γGlu-C16 diacid])GEASELSTAALGRLSAELHRLATLPRTETGSGSP-NH2 [Compound 17] | 0.0336 | 0.00513 | −84% | −78 | −11 | – | – | – | –
4 | H[Aib]HGTFTSDYSILLEEQAAREFIEWLLAGGPSK([AEEA-AEEA-γGlu-C16 diacid])GEASQLSTAALGRLSAELHRLADLPRTETGSGSP-NH2 [Compound 62] | 0.0288 | – | −74% | −42 | −13 | 0.00335 | – | – | –
5 | H[Aib]HGTFTSDYSILLEEQAAREFIEWLLAGGPSK([AEEA-AEEA-γGlu-C18 diacid])GAPPPSGGGEASELSTAALGRLSAELHELATLPRTETGSGSP-NH2 [Compound 15] | 0.0822 | 0.00501 | −30% | −42 | −9 | – | – | – | –
6 | H[Aib]HGTFTSDYSILLEEQAAREFIEWLLAGGPSK([AEEA-AEEA-γGlu-C18 diacid])GAPPPSGGGEASHLSTAQTARLSAELHQLATLPRTETGSGSP-NH2 [compound 101] | 0.0955 | 0.00308 | – | – | – | – | – | – | –
7 | H[Aib]HGTFTSDYSILLEEQAAREFIEWLLAGGPSK([AEEA-AEEA-γGlu-C18 diacid])GAPPPSGGGGASELSTAALGRLSAELHRLATLPRTETGSGSP-NH2 [Compound 14] | 0.0334 | 0.00221 | −78% | −85 | −32 | – | – | – | –
8 | H[Aib]HGTFTSDYSILLEEQAAREFIEWLLAGGPSK([AEEA-AEEA-γGlu-C18 diacid])GEASHLSTAQTARLSAELHELATLPRTETGSGSP-NH2 [Compound 36] | 0.137 | 0.00384 | −44% | −45 | −3 | – | – | – | –
9 | H[Aib]HGTFTSDYSILLEEQAAREFIEWLLAGGPSK([AEEA-AEEA-γGlu-C18 diacid])GEASQLSTAALGRLSAELHQLATLPRTETGSGSP-NH2 [Compound 64] | 0.109 | 0.00191 | – | – | – | – | – | – | –
10 | H[Aib]HGTFTSDYSILLEEQAAREFIEWLLAGGPSK([AEEA-AEEA-γGlu-C18 diacid])GEASQLSTAALGRLSAELHTLATLPRTETGSGSP-NH2 [Compound 63] | 0.0703 | 0.00286 | −79% | −80 | −17 | – | – | – | –
11 | H[Aib]HGTFTSDYSILLEEQAAREFIEWLLAGGPSK([AEEA-AEEA-γGlu-C20 diacid])GAPPPSGGGEASELSTAALGRLSAELHELATLPRTETGSGSP-NH2 [Compound 16] | 0.166 | 0.0057 | −17% | −11 | −10 | – | −39 | −22 | −17
12 | H[Aib]HGTFTSDYSILLEEQAAREFIEWLLAGGPSRGEASHLSTAQTQRLSAELHK([AEEA-AEEA-γGlu-C18 diacid])LATLPRTETGSGSP-NH2 [Compound 69] | 0.0789 | 0.00343 | −81% | −68 | −6 | – | – | – | –
13 | H[Aib]HGTFTSDYSILLEEQAAREFIEWLLAGGPSSGAGQAPGQAPGASHLSTAQTQRLSAELHRLK([AEEA-AEEA-γGlu-C18 diacid])TLPRTETGSGSP-NH2 [Compound 91] | 0.0288 | 0.00226 | −96% | −84 | −33 | – | – | – | –
14 | H[Aib]HGTFTSDYSILLEEQAAREFIEWLLAGGPSSGAGQAPGQAPGASHLSTAQTQRLSAK([AEEA-AEEA-γGlu-C18 diacid])LHRLATLPRTETGSGSP-NH2 [Compound 78] | 0.0171 | 0.00183 | −96% | −57 | −3 | – | – | – | –
15 | H[Aib]HGTFTSDYSILLEEQAAREFIEWLLAGGPSSGAGQAPGQAPLASHLSTAQTQRLSAELHK([AEEA-AEEA-γGlu-C18 diacid])LATLPRTETGSGSP-NH2 [Compound 93] | 0.0664 | 0.00223 | −94% | −61 | −25 | – | – | – | –
16 | H[Aib]HGTFTSDYSILLEEQAAREFIEWLLAGGPSSGEASHLSTAALGRLSAELHRLK([AEEA-AEEA-γGlu-C18 diacid])TLPRTETGSGSP-NH2 [Compound 89] | 0.0397 | 0.00312 | −93% | −78 | −28 | – | – | – | –
17 | H[Aib]HGTFTSDYSILLEEQAAREFIEWLLAGGPSSGEASHLSTAALGRLSAK([AEEA-AEEA-γGlu-C18 diacid])LHRLATLPRTETGSGSP-NH2 [Compound 87] | 0.0365 | 0.00499 | −91% | −86 | −24 | – | – | – | –
18 | H[Aib]HGTFTSDYSILLEEQAAREFIEWLLAGGPSSGEASHLSTAQTQRLSAK([AEEA-AEEA-γGlu-C18 diacid])LHRLATLPRTETGSGSP-NH2 [Compound 82] | 0.038 | 0.00326 | −94% | −73 | −27 | – | – | – | –
19 | Y[Aib]EGTFTSDYSILLEEQAAREFIEWLLAGGPSK([AEEA-AEEA-γGlu-C16 diacid])GAPPPSGGGEASELSTAALGRLSAELHELATLPRTETGSGSP-NH2 [compound 10] | 0.175 | 0.0068 | −20* % | −4 | −4 | – | – | – | –
20 | Y[Aib]EGTFTSDYSILLEEQAAREFIEWLLAGGPSK([AEEA-AEEA-γGlu-C16 diacid])GEASELSTAALGRLSAELHELATLPRTETGSGSP-NH2 [Compound 11] | 0.211 | 0.0128 | – | – | – | – | −46 | −45 | −27
21 | Y[Aib]EGTFTSDYSILLEEQAAREFIEWLLAGGPSRGEASHLSTAQTQRLSAELHK([AEEA-AEEA-γGlu-C18 diacid])LATLPRTETGSGSP-NH2 [compound 68] | 0.23 | 0.00257 | – | – | – | – | – | – | –
22 | Y[Aib]EGTFTSDYSILLEEQAAREFIEWLLAGGPSSGAGQAPGQAPGASHLSTAQTQRLSAELHK([AEEA-AEEA-γGlu-C18 diacid])LATLPRTETGSGSP-NH2 [compound 52] | 0.119 | 0.00285 | – | – | – | – | – | – | –
23 | Y[Aib]EGTFTSDYSILLEEQAAREFIEWLLAGGPSSGAGQAPGQAPGASHLSTAQTQRLSAELHK([AEEA-AEEA-γGlu-C20 diacid])LATLPRTETGSGSP-NH2 [Compound 115] | – | – | −44.5% | −76.5 | −38 | – | – | – | –
24 | Y[Aib]EGTFTSDYSILLEEQAAREFIEWLLAGGPSSGAGQAPGQAPGASHLSTAQTQRLSAK([AEEA-AEEA-γGlu-C18 diacid])LHRLATLPRTETGSGSP-NH2 [compound 55] | 0.034 | 0.00222 | – | – | – | – | – | – | –
25 | Y[Aib]EGTFTSDYSILLEEQAAREFIEWLLAGGPSSGAGQAPGQAPLASHLSTAQTQRLSAELHK([AEEA-AEEA-γGlu-C18 diacid])LATLPRTETGSGSP-NH2 [compound 58] | 0.134 | 0.00291 | – | – | – | – | – | – | –
